assay: Inhibition of Influenza A virus H5N1 Neuraminidase

In order of falling IC50:
1. COc1ccc(OC)c(NC(=O)CSc2nnc(-c3ccco3)[nH]2)c1  55.3 µM
2. COc1ccc(C)cc1NC(=O)CSc1nnc(-c2ccco2)[nH]1  28.5 µM
3. COc1ccc(C(=O)NNC(=O)CSc2nnc(-c3ccco3)[nH]2)cc1  12.2 µM
4. COc1cccc(CCNC(=O)CSc2nnc(-c3ccco3)[nH]2)c1  9.04 µM
5. O=C(CSc1nnc(-c2ccco2)[nH]1)NCCc1cccc(F)c1  8.06 µM
6. O=C(CSc1nnc(-c2ccco2)[nH]1)Nc1cccc(Cl)c1  4.33 µM
7. COc1cc(F)ccc1NC(=O)CSc1nnc(-c2ccco2)[nH]1  1.8 µM
8. O=C(CSc1nnc(-c2ccco2)[nH]1)NCCc1ccc2c(c1)OCO2  1.67 µM
9. COc1ccc(NC(=O)CSc2nnc(-c3ccco3)[nH]2)cc1OC  1.43 µM
10. COc1cccc(NC(=O)CSc2nnc(-c3ccco3)[nH]2)c1  0.24 µM
11. CCc1ccc(NC(=O)CSc2nnc(-c3ccco3)[nH]2)cc1  0.11 µM
12. CCC(CC)O[C@@H]1C=C(C(=O)O)C[C@H](N)[C@H]1NC(C)=O [OSELTAMIVIR CARBOXYLATE]  0.1 µM
